Data as given in patent US20220031800A1, “PEPTIDES FOR TREATING NON-EXUDATIVE MACULAR DEGENERATION AND OTHER DISORDERS OF THE EYE” (Allegro Pharmaceuticals, LLC, priority 2019, published 2022).
“And” between values parts separate entries of the source, which are not always exact repeats. Identical values can stand only once. Square brackets hold non-standard residues; d marks the D form. Peptide text beside a SMILES is read from it. Cya = N[C@@H](CS(=O)(=O)O)C(=O)O

Tested on: study eye of subjects with intermediate non-exudative AMD
Experiment: SD-OCT Analysis 2 (thickness, volume, map coverage of retinal layers)
Format: in vivo, human
Conditions: change from baseline at Week 32
Method: Numerous study assessments were conducted at various time points throughout the study. Included among these study assessments were; refractive eye examinations, determinations of BCVA AND low-luminance BCVA, Lanthony D-15 color vision test, measurement of intraocular pressure (IOP), Indirect ophthalmoscopy/dilated fundus examinations and spectral-domain optical coherence tomography (SD-OCT). Also, blood and saliva samples were obtained from each subject for genetic analysis. The above-listed study assessments were performed at the time points indicated in Table 1, below: The OCT scans were analyzed by two (2) unrelated experts. In Analysis #2, the OCT images of study eyes were analyzed to determine mean thickness and mean volume of numerous retinal subfields and layer segments at baseline and at Week 12 for sham eyes and at baseline and at Week 32 for risuteganib eyes, to document any significant differences between groups of eyes based on baseline measurements or changes from baseline in those measurements. In addition to the quantitative analysis of OCT images, OCT Analysis #2 included qualitative assessment of the OCT images to identify GA, pseudodrusen, and disruption of the ELM and EZ layers. FIGS. 9A, 9B and 9C illustrate the level of varying pathology within the ELM based on quantitative mapping that were also assessed, with FIG. 9A (left) showing no ELM disruption, FIG. 9B (center) showing segmental disruption, and FIG. 9C showing diffuse disruption.

[1] = risuteganib nonresponder eyes, n = 12
[2] = risuteganib responder eyes, n = 12
[3] = risuteganib super-responder eyes, n = 8

Compound: C[C@@H](O)[C@H](NC(=O)[C@H](CS(=O)(=O)O)NC(=O)CNC(=O)[C@H](CCCNC(=N)N)NC(=O)CN)C(=O)N1CCC[C@H]1C(=O)O [risuteganib, Glycyl-L-arginylglycyl-3-sulfo-L-alanyl-L-threonyl-L-proline] (H-GRG[Cya]TP-OH)
- Change in mean thickness, Inner retina mid subfield [1]: 2.274 μm
- Change in mean thickness, ONL-EZ central subfield [1]: −6.486 μm
- Change in mean thickness, ONL-EZ mid subfield [1]: −4.522 μm
- Change in mean thickness, ONL-RPE central subfield [1]: −7.877 μm
- Change in mean thickness, ONL-RPE foveal center [1]: −7.626 μm
- Change in mean thickness, ONL-RPE mid subfield [1]: −6.320 μm
- Change in mean thickness, RPE-BM central subfield [1]: −0.118 μm
- Change in mean thickness, RPE-BM foveal center [1]: −3.740 μm
- Change in mean thickness, RPE-BM mid subfield [1]: 1.114 μm
- Change in mean thickness, Total retinal central subfield [1]: −5.981 μm
- Change in mean thickness, Total retinal foveal center [1]: −9.112 μm
- Change in mean thickness, Total retinal mid subfield [1]: −4.046 μm
- Change in volume, ELM-EZ central subfield [1]: −0.001 mm^3
- Change in volume, ELM-EZ mid subfield [1]: 0.002 mm^3
- Change in volume, ELM-RPE [1]: 0.009 mm^3
- Change in volume, ELM-RPE central subfield [1]: −0.002 mm^3
- Change in volume, ELM-RPE mid subfield [1]: −0.003 mm^3
- Change in volume, EZ-RPE [1]: 0.005 mm^3
- Change in volume, EZ-RPE central subfield [1]: −0.001 mm^3
- Change in volume, EZ-RPE mid subfield [1]: −0.006 mm^3
- Change in volume, ONL-EZ central subfield [1]: −0.005 mm^3
- Change in volume, ONL-EZ mid subfield [1]: −0.014 mm^3
- Change in volume, ONL-RPE [1]: −0.026 mm^3
- Change in volume, ONL-RPE central subfield [1]: −0.006 mm^3
- Change in volume, ONL-RPE mid subfield [1]: −0.020 mm^3
- Change in volume, RPE-BM [1]: 0.037 mm^3
- Change in volume, RPE-BM central subfield [1]: 0.000 mm^3
- Change in volume, RPE-BM mid subfield [1]: 0.004 mm^3
- Change in volume, Total retinal [1]: 0.091 mm^3
- Change in volume, Total retinal central subfield [1]: −0.004 mm^3
- Change in volume, Total retinal mid subfield [1]: −0.012 mm^3
- Map coverage, 0 μm EZ [1]: 1.469%
- Map coverage, 0 μm RPE-BM [1]: 1.465%
- Map coverage, 10 μm EZ [1]: 1.332%
- Map coverage, 20 μm EZ [1]: 1.288%
- Map coverage, 50 μm RPE-BM [1]: −1.794%
- Map coverage, 150 μm RPE-BM [1]: 2.143%
- Map coverage, 250 μm RPE-BM [1]: 0.000%
- Change in mean thickness, ELM-EZ central subfield [2]: −2.322 μm
- Change in mean thickness, ELM-EZ mid subfield [2]: −0.967 μm
- Change in mean thickness, ELM-RPE central subfield [2]: −3.102 μm
- Change in mean thickness, ELM-RPE foveal center [2]: −0.000 μm and 0.000 μm
- Change in mean thickness, ELM-RPE mid subfield [2]: −2.141 μm
- Change in mean thickness, EZ-RPE central subfield [2]: −0.779 μm
- Change in mean thickness, EZ-RPE foveal center [2]: 0.975 μm
- Change in mean thickness, EZ-RPE mid subfield [2]: −1.174 μm
- Change in mean thickness, Inner retina central subfield [2]: 5.864 μm
- Change in mean thickness, Inner retina mid subfield [2]: 5.512 μm
- Change in mean thickness, ONL-EZ central subfield [2]: −5.775 μm
- Change in mean thickness, ONL-EZ mid subfield [2]: −5.386 μm
- Change in mean thickness, ONL-RPE central subfield [2]: −6.555 μm
- Change in mean thickness, ONL-RPE foveal center [2]: 0.650 μm
- Change in mean thickness, ONL-RPE mid subfield [2]: −6.561 μm
- Change in mean thickness, RPE-BM central subfield [2]: −8.238 μm
- Change in mean thickness, RPE-BM foveal center [2]: −12.512 μm
- Change in mean thickness, RPE-BM mid subfield [2]: −5.287 μm
- Change in mean thickness, Total retinal central subfield [2]: −0.691 μm
- Change in mean thickness, Total retinal foveal center [2]: 0.804 μm
- Change in mean thickness, Total retinal mid subfield [2]: −1.049 μm
- Change in volume, ELM-EZ central subfield [2]: −0.002 mm^3
- Change in volume, ELM-EZ mid subfield [2]: −0.003 mm^3
- Change in volume, ELM-RPE [2]: 0.086 mm^3
- Change in volume, ELM-RPE central subfield [2]: −0.002 mm^3
- Change in volume, ELM-RPE mid subfield [2]: −0.007 mm^3
- Change in volume, EZ-RPE [2]: −0.059 mm^3
- Change in volume, EZ-RPE central subfield [2]: −0.001 mm^3
- Change in volume, EZ-RPE mid subfield [2]: −0.004 mm^3
- Change in volume, ONL-EZ central subfield [2]: −0.004 mm^3
- Change in volume, ONL-EZ mid subfield [2]: −0.017 mm^3
- Change in volume, ONL-RPE [2]: 0.009 mm^3
- Change in volume, ONL-RPE central subfield [2]: −0.005 mm^3
- Change in volume, ONL-RPE mid subfield [2]: −0.021 mm^3
- Change in volume, RPE-BM [2]: −0.049 mm^3
- Change in volume, RPE-BM central subfield [2]: −0.007 mm^3
- Change in volume, RPE-BM mid subfield [2]: −0.017 mm^3
- Change in volume, Total retinal [2]: −0.188 mm^3
- Change in volume, Total retinal central subfield [2]: 0.000 mm^3
- Change in volume, Total retinal mid subfield [2]: −0.004 mm^3
- Map coverage, 0 μm EZ [2]: 3.679%
- Map coverage, 0 μm RPE-BM [2]: 1.099%
- Map coverage, 10 μm EZ [2]: 3.699%
- Map coverage, 20 μm EZ [2]: 3.574%
- Map coverage, 50 μm RPE-BM [2]: −3.494%
- Map coverage, 150 μm RPE-BM [2]: 3.335%
- Map coverage, 250 μm RPE-BM [2]: −0.011%
- Change in mean thickness, ELM-EZ central subfield [3]: −1.658 μm
- Change in mean thickness, ELM-EZ mid subfield [3]: −1.049 μm
- Change in mean thickness, ELM-RPE central subfield [3]: −3.461 μm
- Change in mean thickness, ELM-RPE foveal center [3]: 2.925 μm
